From ChEMBL document CHEMBL3351963 (Bioorg Med Chem Lett, 2014)
In brackets after ≈: the same amount, converted by molar mass.

What was measured:
[1] = Retention time of the compound by HPLC method; type: physicochemical
[2] = Prodrug conversion in rat liver S9 fraction assessed as […] GST-mediated metformin formation at 10 to 200 uM in presence of 1 mM reduced glutathione by Michaelis-Menten method; type: ADME, subcellular; settings: s9, 200 µM
[3] = Stability in rat liver S9 fraction at 100 uM after 24 hrs in presence of 1 mM reduced glutathione at 37 degC by HPLC method; type: ADME, subcellular; settings: s9, 24 h
[4] = Stability in pH 7.4 buffer solution; type: physicochemical
[5] = Distribution coefficient, logD of the compound in mixture of 1-octanol and 50 mM phosphate buffer pH 7.4 by HPLC method; type: physicochemical; settings: 1-octanol/50 mM phosphate buffer
[6] = Stability in pH 1.0 HCl buffer solution measured over 3 weeks by HPLC method; type: physicochemical; settings: pH 1, 504 h
[7] = Stability in rat liver S9 fraction at 100 uM after 24 hrs in absence of 1 mM reduced glutathione at 37 degC by HPLC method; type: ADME; settings: s9, 24 h
Liver microsome = experiment: Prodrug conversion in rat liver microsomes assessed as half life for metformin formation at 100 uM in presence of a NADPH-regenerating system by HPLC method; type: ADME
[8] = Stability in presence of 1 mM reduced glutathione at 100 uM after 24 hrs at 37 degC by HPLC method; type: physicochemical
[9] = Aqueous solubility in pure water incubated for 1 hr by HPLC based shake flask method; type: physicochemical
Intestine = experiment: Stability in rat small intestine homogenates by HPLC method; type: ADME, tissue-based; settings: tissue homogenate
[10] = Prodrug conversion in rat liver S9 fraction assessed as half life for metformin formation at 100 uM in presence of 1 mM reduced glutathione by HPLC method; type: ADME, subcellular; settings: gsh
[11] = molecular target: Glutathione S-transferase P (Homo sapiens, UniProt P09211); experiment: Prodrug conversion assessed as half life for human recombinant GST-P1-mediated metformin formation at 100 uM in presence of 1 mM reduced glutathione by HPLC method; type: ADME; settings: gsh
[12] = molecular target: T1, Glutathione S-transferase A1 (Homo sapiens, UniProt P08263); experiment: Prodrug conversion assessed as half life for human recombinant GST-A1-mediated metformin formation at 100 uM in presence of 1 mM reduced glutathione by HPLC method; type: ADME; settings: gsh
T1 sequence (P08263 whole entry): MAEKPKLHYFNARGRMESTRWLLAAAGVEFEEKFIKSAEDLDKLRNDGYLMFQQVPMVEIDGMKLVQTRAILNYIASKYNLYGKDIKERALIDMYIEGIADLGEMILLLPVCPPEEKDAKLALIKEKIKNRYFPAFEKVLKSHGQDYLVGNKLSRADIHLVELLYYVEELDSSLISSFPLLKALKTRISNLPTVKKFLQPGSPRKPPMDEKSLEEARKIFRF

[13] = Prodrug conversion in human liver S9 fraction assessed as half life for metformin formation at 100 uM in presence of 1 mM reduced glutathione by HPLC method; type: ADME, subcellular; settings: gsh
Liver cytosol = experiment: Prodrug conversion in rat liver cytosol assessed as half life for metformin formation at 100 uM in presence of a NADPH-regenerating system by HPLC method; type: ADME, tissue-based
[14] = molecular target: T2, Glutathione S-transferase Mu 2 (Homo sapiens, UniProt P28161); experiment: Prodrug conversion assessed as half life for human recombinant GST-M2-mediated metformin formation at 100 uM in presence of 1 mM reduced glutathione by HPLC method; type: ADME; settings: gsh
T2 sequence (P28161 whole entry): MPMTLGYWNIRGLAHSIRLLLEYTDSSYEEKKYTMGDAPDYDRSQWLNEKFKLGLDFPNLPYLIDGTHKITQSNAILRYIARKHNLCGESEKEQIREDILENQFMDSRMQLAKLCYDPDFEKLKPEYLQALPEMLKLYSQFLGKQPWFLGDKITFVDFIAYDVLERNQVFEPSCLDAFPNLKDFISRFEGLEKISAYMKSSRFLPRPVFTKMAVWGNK

Glutathione S-transferase P, sequence (P09211 whole entry): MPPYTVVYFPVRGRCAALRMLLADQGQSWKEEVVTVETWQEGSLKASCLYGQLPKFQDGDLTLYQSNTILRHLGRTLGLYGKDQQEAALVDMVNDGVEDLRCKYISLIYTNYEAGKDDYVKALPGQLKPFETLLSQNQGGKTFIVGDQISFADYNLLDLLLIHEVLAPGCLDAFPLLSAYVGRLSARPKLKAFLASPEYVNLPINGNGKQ

| Structure (SMILES) | Retention_time [1] [min] | Km [2] [µM] | Vmax [2] [nmol/mg/min] | Stability [3] | Stability [4] | further results |
| --- | --- | --- | --- | --- | --- | --- |
| CCC[C@@]1(CCc2ccccc2)CC(O)=C([C@H](CC)c2cccc(NS(=O)(=O)c3ccc(C#N)cn3)c2)C(=O)O1 | – | 143 | 13.9 | – | – | – |
| CN(C)C(=N)/N=C(\N)NS(=O)(=O)c1ccccc1[N+](=O)[O-] | 3 | – | – | Stable | Stable | – |
| CN(C)C(=N)/N=C(\N)NS(=O)(=O)c1ccc([N+](=O)[O-])cc1 | 3 | – | – | Stable | Stable | – |

The next lines start with results.

| Retention_time [1] [min] | Km [2] [µM] | Vmax [2] [nmol/mg/min] | Stability [3] | Stability [4] | Structure (SMILES) | further results |
| --- | --- | --- | --- | --- | --- | --- |
| 15 | – | – | – | – | CN(C)C(=N)N=C(N)N [METFORMIN] | – |
| 3 | 106 | 8.86 | – | Stable | CN(C)C(=N)/N=C(\N)NS(=O)(=O)c1ccc(C(F)(F)F)cc1[N+](=O)[O-] | logD [5]: 0.86; Stability [6]: Stable; Stability [7]: Stable; t1/2 (Liver microsome): 9.4752 h; Stability [8]: Stable; solubility thermodynamic at 1 h [9]: 360 µg/mL (≈ 942 µM); Stability (Intestine): Stable; t1/2 [10]: 3.7668 h; t1/2 [11]: 6.8675 h; t1/2 [12]: 6.337 h; t1/2 [13]: 6.0382 h; t1/2 (Liver cytosol): 4.6642 h; t1/2 [14]: 6.1045 h |
